Series [1] has as its system anaesthetized rats. The series is described as follows: Haemodynamic profile in anaesthetized rats. Type of series: in vivo. The arrangement: Dhr20 = i.v. dose which reduces heart rate by ca. 20%: unit not given here. To be noted: for %effect of Dhr20 on BP (mean arterial blood pressure) / %effect of Dhr20 on LVP (systolic left ventricular pressure) / %effect of Dhr20 on dp/dtmax: at Dhr20, i.v.; for %effect of Dhr20 on BP (mean arterial blood pressure) / %effect of Dhr20 on LVP (systolic left ventricular pressure) / %effect of Dhr20 on dp/dtmax / Dhr20 = i.v. dose which reduces heart rate by ca. 20%: rat; for %effect of Dhr20 on dp/dtmax: left ventricular dp/dt max. An excerpt:
The effect of compounds of the invention on heart rate, systolic left ventricular pressure, left ventricular dp/dt max and mean arterial blood pressure was investigated so as to obtain information on the anti-anginal potential of these compounds, by reducing the oxygen demand of the ischaemic heart.

The test system of another series is conscious rabbits. Kind of series: Antiarrhythmic activity, suprathreshold cardiac electric stimulation in conscious rabbits. Type of series: in vivo. The protocol: Compound (El) infused at 2.5mg/min in the ear vein of conscious rabbits inhibited the arrhythmogenic effect of suprathreshold cardiac electric stimulation. The therapeutic index, i.e. the ratio between the dose of compound required to produce A-V-block (8 mg/kg) and that dose which gave an antiarrhythmic effect (0.9mg/kg) was 8.9.

Series [2] concerns anaesthetized rats. The series is described as follows: Antianginal activity, vasopressin-induced ST-segment elevation in the ECG, i.v. Type of series: in vivo. Particulars: Rattus norvegicus, iv, reduction of ST-segment elevation after i.v. 1 I.U./kg vasopressin, read-out: minimum effective i.v. antianginal dose.
For series [3], the system named is guinea-pig papillary muscle. The series is described as follows: Ca++-antagonistic activity, calcium dependent action potentials in papillary muscle in vitro. Format: cell-based. Particulars: 1-3 x 10^-6M; 34+ 1°C; krebs medium containing 26 nM K+ and 0.5 nM BaCl2. The method, then: In guinea-pig papillary muscle (34+ 1°C) in vitro, the Compound (El) (1-3 x 10-^6M) depressed the maximal rate of rise (Vmax) of calcium dependent action potentials evoked in krebs medium containing […] K^+ and […], BaC12. These action potentials were recorded using conventional intracellular techniques.

The test system of series [4] is anaesthetized rats. The series is described as follows: Vasopressin test in anaesthetized rats (coronary spasm), intraduodenal. Type of series: in vivo. Particulars: 32mg/kg i.d. The method, then: Vasopressin (Lysopressin: 1 I.U./kg) was administered intravenously in order to provoke coronary spasm. Compound (El) was active against coronary spasm at a dose of 32mg/kg i.d. with a duration of action greater than 2 hours. The ability of test compounds to reduce coronary spasm is taken as a measure of their anti-anginal potential in spasm - induced angina pectoris. (Ref. Drug.Res. 33(11), 8,1117-1121 (1983)).

Regarding `CCC(CNC(=O)c1cc(OC)c(OC)c(OC)c1)N1CCC(N(C)C(CC)CNC(=O)c2cc(OC)c(OC)c(OC)c2)CC1` (stereo not drawn) [Compound E38, 1-[1-(3,4,5-trimethoxybenzamido-butyl-(2))]-4-N-methyl-N-[1-(3,4,5-trimethoxybenzamido-butyl-(2))]-amino-piperidine], in the series with anaesthetized rats [1], the “%effect of Dhr20 on BP (mean arterial blood pressure)” value (shortened to “%effect of Dhr20 on BP”) was -6%, the “%effect of Dhr20 on LVP (systolic left ventricular pressure)” value (from here on “%effect of Dhr20 on LVP”) is reported as -7%, the “%effect of Dhr20 on dp/dtmax” value was -32% and the “i.v. duration of action on heart rate (rat)” value (from here on “i.v. duration of action”) lay in the range of 10 to 15 min. Besides, the “Dhr20 = i.v. dose which reduces heart rate by ca. 20%” value in the series on anaesthetized rats [1] is reported as 12.8.
On to `CCC(CNC(=O)c1cccc(Cl)c1)N(C)CCN(C)C(CC)CNC(=O)c1cccc(Cl)c1` (stereo not drawn) [Compound E3], for which, in the series with anaesthetized rats [1], the “%effect of Dhr20 on BP” value is -16%, the “%effect of Dhr20 on LVP” value is listed as -2%, the “%effect of Dhr20 on dp/dtmax” value is reported as -15% and the “i.v. duration of action” value turned out to be 10 min. Moreover, the “Dhr20 = i.v. dose which reduces heart rate by ca. 20%” value with anaesthetized rats [1] is 1.6.
Turning to `CCC(CNC(=O)c1cccnc1)N(C)CCN(C)C(CC)CNC(=O)c1cccnc1` (stereo not drawn) [Compound E30, N,N'-dimethyl-N,N'-di[1-nicotinoylamido-butyl-(2)]-ethylene-diamine], in the series on anaesthetized rats [1], the “%effect of Dhr20 on BP” value is given as -14%, the “%effect of Dhr20 on LVP” value is -9%, the “%effect of Dhr20 on dp/dtmax” value was -15% and the “i.v. duration of action” value came out at 10 min. Moreover, the “Dhr20 = i.v. dose which reduces heart rate by ca. 20%” value in the series on anaesthetized rats [1] is 12.8.
For the molecule `CCC(CNC(=O)c1ccc(C#N)cc1)N(C)CCN(C)C(CC)CNC(=O)c1ccc(C#N)cc1` (stereo not drawn) [Compound E7], in the series with anaesthetized rats [1], the “%effect of Dhr20 on BP” value is -6%, the “%effect of Dhr20 on LVP” value was -5%, the “%effect of Dhr20 on dp/dtmax” value is recorded as -15% and the “i.v. duration of action” value was 5 to 10 min. Further, the “Dhr20 = i.v. dose which reduces heart rate by ca. 20%” value in the series on anaesthetized rats [1] worked out at 3.2.
On to `CCC(CNC(=O)c1ccc2c(c1)OCO2)N(C)CCN(C)C(CC)CNC(=O)c1ccc2c(c1)OCO2` (stereo not drawn) [Compound E12], for which, in the series with anaesthetized rats [1], the “%effect of Dhr20 on BP” value is listed as -4%, the “%effect of Dhr20 on LVP” value was -8%, the “%effect of Dhr20 on dp/dtmax” value is listed as -11% and the “i.v. duration of action” value is 10 to 15 min. Also, the “Dhr20 = i.v. dose which reduces heart rate by ca. 20%” value in the series with anaesthetized rats [1] is on record as 1.6.
On to `CCC(CNC(=O)c1ccc(OC)c(OC)c1)N(C)CCN(C)C(CC)CNC(=O)c1ccc(OC)c(OC)c1` (stereo not drawn) [Compound E11], for which, in the series with anaesthetized rats [1], the “%effect of Dhr20 on BP” value is listed as -2%, the “%effect of Dhr20 on LVP” value is -4%, the “%effect of Dhr20 on dp/dtmax” value was -7% and the “i.v. duration of action” value was 5 to 10 min. Moreover, in the series with anaesthetized rats [1], the “Dhr20 = i.v. dose which reduces heart rate by ca. 20%” value is recorded as 3.2.
Take `CC[C@@H](CNC(=O)c1cc(OC)c(OC)c(OC)c1)N(C)CCN(C)[C@@H](CC)CNC(=O)c1cc(OC)c(OC)c(OC)c1` [Compound E8]: in the series with anaesthetized rats [1], the “%effect of Dhr20 on BP” value is -30%, the “%effect of Dhr20 on LVP” value is listed as -29%, the “%effect of Dhr20 on dp/dtmax” value is given as -36% and the “Dhr20 = i.v. dose which reduces heart rate by ca. 20%” value came out at 3.2.
For the molecule `CCC(CNC(=O)c1cc(Cl)cc(Cl)c1)N(C)CCN(C)C(CC)CNC(=O)c1cc(Cl)cc(Cl)c1` (stereo not drawn) [Compound E2, N,N'-dimethyl-N,N'-di-(2-[1-(3,5-dichlorobenzamido)] -butyl)-ethylene-diamine], in the series on anaesthetized rats [1], the “%effect of Dhr20 on BP” value is -7%, the “%effect of Dhr20 on dp/dtmax” value is listed as -21%, the “i.v. duration of action” value is 15 min and the “Dhr20 = i.v. dose which reduces heart rate by ca. 20%” value turned out to be 3.2.
In the case of `CCC(CNC(=O)c1ccncc1)N(C)CCN(C)C(CC)CNC(=O)c1ccncc1` (stereo not drawn) [Compound E29], in the series on anaesthetized rats [1], the “%effect of Dhr20 on BP” value is -10%, the “%effect of Dhr20 on LVP” value was -6%, the “%effect of Dhr20 on dp/dtmax” value was -2% and the “i.v. duration of action” value was 10 min. Besides, the “Dhr20 = i.v. dose which reduces heart rate by ca. 20%” value with anaesthetized rats [1] is recorded as 12.8.
On the same counts, the results for `COc1cc(C(=O)NCC2CCCCN2CCN2CCCCC2CNC(=O)c2cc(OC)c(OC)c(OC)c2)cc(OC)c1OC` (stereo not drawn) [Compound E16] are -17%, -17.3%, -32%, 10 min and 6.4.
Take `CCC(CNC(=O)c1cc(OC)c(OC)c(OC)c1)N(C)CCN(C)C(CC)CNC(=O)c1cc(OC)c(OC)c(OC)c1` (stereo not drawn) [Compound E1, N,N'-dimethyl-N,N'-di-[1-(3,4,5-trimethoxybenzamido)-butyl-(2)]-ethylenediamine]: in the series on conscious rabbits (Oryctolagus cuniculus, iv, infusion in the ear vein, conscious rabbits, read-out: dose which gave an antiarrhythmic effect), the minimal effective dose was determined as 0.9 mg/kg. Further, the “arrhythmogenic effect of suprathreshold cardiac electric stimulation” value in the series on conscious rabbits (infused at 2.5mg/min in the ear vein, conscious rabbits) is “inhibited”. The “dose of compound required to produce A-V-block” value in the series on conscious rabbits (infusion in the ear vein, conscious rabbits) is listed as 8 mg/kg. For the same molecule, the therapeutic index in the series with conscious rabbits (ratio of A-V-block dose to antiarrhythmic dose) is on record as 8.9. Further, the minimal effective dose in the series on anaesthetized rats [2] amounted to 0.2 mg/kg. Further, the “maximal rate of rise (Vmax) of calcium dependent action potentials” value in series [3] was “depressed”. Further, the duration of action result with anaesthetized rats [4] (against coronary spasm) is “greater than 2 hours”. Further, in the series on anaesthetized rats [4] (vasopressin (Lysopressin) 1 I.U./kg i.v.), the “activity against coronary spasm” value was “active”. In addition, in the series on anaesthetized rats [1], the “%effect of Dhr20 on LVP” value is -17%, the “%effect of Dhr20 on dp/dtmax” value was -24%, the “i.v. duration of action” value stood at 5 min and the “Dhr20 = i.v. dose which reduces heart rate by ca. 20%” value is listed as 3.2.

The values are drawn from patent EP0174085A2, “Bisarylamides of N,N'-di-[1-aminoalkyl-2]-alkylene diamines having a cardiovascular activity” (BEECHAM - WUELFING GmbH & Co. KG, priority 1984, dated 1986).
